According to patent publication US8367830B2, “Methods for the identification of phosphatidylinositol kinase interacting molecules and for the purification of phosphatidylinositol kinase proteins” (Cellzome AG, priority 2009, dated 2013):

Tests used:
CaMK2g [1] = target: T1, CaMK2g (Homo sapiens, UniProt Q13555); experiment: Kinobeads competition binding, immobilized CZC31207, HeLa/placenta lysate mix; set-up: endogenous in cells; conditions: 10 μM free compound; mixed HeLa and placenta cell lysates
Procedure: (§1) To the first aliquot of cell lysate 10 μM of the free compound (CZC31207) was added and allowed to bind to proteins in the lysate. Then the affinity matrix with the immobilized compound (Example 1) was added to capture proteins that were not interacting with the previously added free compound. Beads were separated from the lysate and bead bound proteins were eluted in SDS sample buffer and subsequently separated by SDS-Polyacrylamide gel electrophoresis (FIG. 4). Suitable gel bands were cut out and subjected to in-gel proteolytic digestion with trypsin. The second lysate aliquot was processed identically, however no free compound was added (DMSO solvent control). Peptides originating from samples 1 and 2 were labeled with iTRAQ reagents (iTRAQ 115 and iTRAQ 117) and the combined samples were analyzed with a nano-flow liquid chromatography system coupled online to a tandem mass spectrometer (LC-MS/MS) experiment followed by iTRAQ reporter ion quantification in the MS/MS spectra (Ross et al., 2004. Mol. Cell. Proteomics 3(12):1154-1169). Further experimental protocols can be found in WO2006/134056 and a previous publication (Bantscheff et al., 2007. Nature Biotechnology 25, 1035-1044).
(§2) Cells were homogenized in a Potter S homogenizer in lysis buffer: 50 mM Tris-HCl, 0.8% NP40, 5% glycerol, 150 mM NaCl, 1.5 mM MgCl2, 25 mM NaF, 1 mM sodium vanadate, 1 mM DTT, pH 7.5. One complete EDTA-free tablet (protease inhibitor cocktail, Roche Diagnostics, 1 873 580) per 25 ml buffer was added. The material was dounced 20 times using a mechanized POTTER S, transferred to 50 ml falcon tubes, incubated for 30 minutes rotating at 4° C. and spun down for 10 minutes at 20,000×g at 4° C. (10,000 rpm in Sorvall SLA600, precooled). The supernatant was transferred to an ultracentrifuge (UZ)-polycarbonate tube (Beckmann, 355654) and spun for 1 hour at 145.000×g at 4° C. (40.000 rpm in Ti50.2, precooled). The supernatant was transferred again to a fresh 50 ml falcon tube, the protein concentration was determined by a Bradford assay (BioRad) and samples containing 50 mg of protein per aliquot were prepared. The samples were immediately used for experiments or frozen in liquid nitrogen and stored frozen at −80° C.
(§3) Sepharose-beads with the immobilized compound (100 μl beads per pull-down experiment) were equilibrated in lysis buffer and incubated with a cell lysate sample containing 50 mg of protein on an end-over-end shaker (Roto Shake Genie, Scientific Industries Inc.) for 2 hours at 4° C. Beads were collected, transferred to Mobicol-columns (MoBiTech 10055) and washed with 10 ml lysis buffer containing 0.4% NP40 detergent, followed by 5 ml lysis buffer containing 0.2% detergent. To elute bound proteins, 60 μl 2×SDS sample buffer was added to the column. […]

CDC2 = target: T2, CDC2 (Homo sapiens, UniProt P06493); experiment: Kinobeads competition binding, immobilized CZC31207, Jurkat/Ramos lysate mix; conditions: 10 μM free compound; mix of Jurkat and Ramos cell lysates
T2 construct: endogenous in cells; host or cells: mixed lysate of Jurkat and Ramos cells
Procedure: (§4) To the first aliquot of cell lysate 10 μM of the free compound CZC31207 was added and allowed to bind to proteins in the lysate. Then the affinity matrix with the immobilized compound was added to capture proteins that were not interacting with the previously added free compound. Beads were separated from the lysate and bead bound proteins were eluted in SDS sample buffer and subsequently separated by SDS-Polyacrylamide gel electrophoresis (FIG. 5). Suitable gel bands were cut out and subjected to in-gel proteolytic digestion with trypsin. The second lysate aliquot was processed identically, however no free compound was added (DMSO solvent control). Peptides originating from samples 1 and 2 were labeled with iTRAQ reagents (iTRAQ 114 and iTRAQ 116) and the combined samples were analyzed with a nano-flow liquid chromatography system coupled online to a tandem mass spectrometer (LC-MS/MS) experiment followed by iTRAQ reporter ion quantification in the MS/MS spectra as described in Example 2.
(§5) Jurkat cells (ATCC number T1B-152) and Ramos cells (ATCC number CRL-1596) were either obtained from an external supplier (CIL SA, Mons, Belgium) or grown in one litre Spinner flasks (Integra Biosciences, #182101) in suspension in RPMI 1640 medium (Invitrogen, #21875-034) supplemented with 10% Fetal Bovine Serum (Invitrogen, #10270-106) at a density between 0.2×10^6 and 1.0×10^6 cells/ml. Cells were harvested by centrifugation, washed once with 1×PBS buffer (Invitrogen, #14190-094) and cell pellets were frozen in liquid nitrogen and subsequently stored at −80° C.
(§6) The identified kinases are shown in Table 5 including the percent competition values for the sample to which 10 μM free compound had been added. In total of 20 different kinases were identified and competed by different degrees.

PIK3C3 = target: T3, PIK3C3 (Homo sapiens, UniProt Q8NEB9); experiment: as above; conditions: 10 μM free compound; mix of Jurkat and Ramos cell lysates
T3 construct: endogenous in cells; host or cells: mixed lysate of Jurkat and Ramos cells
Procedure: as §4, §5, §6

CaMK2d = target: T4, CaMK2d (Homo sapiens, UniProt Q13557); experiment: as above; conditions: 10 μM free compound; mix of Jurkat and Ramos cell lysates
T4 construct: endogenous in cells; host or cells: mix of Jurkat and Ramos cell lysates
Procedure: as §4, §5, §6

PIP5K2A = target: T5, PIP5K2A (Homo sapiens, UniProt P48426); experiment: as above; conditions: 10 μM free compound; mix of Jurkat and Ramos cell lysates
T5 construct: endogenous in cells
Procedure: as §4, §5, §6

PIK4C2B = target: T6, PIK4C2B (Homo sapiens, UniProt Q8TCG2); experiment: as above; conditions: 10 μM free compound; mix of Jurkat and Ramos cell lysates
T6 construct: endogenous in cells; host or cells: mixed lysate of Jurkat and Ramos cells
Procedure: as §4, §5, §6

MST1 = target: T7, MST1 (Homo sapiens, UniProt Q13043); experiment: as above; conditions: 10 μM free compound; mix of Jurkat and Ramos cell lysates
T7 construct: endogenous in cells; host or cells: mixed lysate of Jurkat and Ramos cells
Procedure: as §4, §5, §6

PKD2 = target: T8, PKD2 (Homo sapiens, UniProt Q9BZL6); experiment: as above; conditions: 10 μM free compound; mix of Jurkat and Ramos cell lysates
T8 construct: endogenous in cells; host or cells: mixed lysate of Jurkat and Ramos cells
Procedure: as §4, §5, §6

CDK6 = target: T9, CDK6 (Homo sapiens, UniProt Q00534); experiment: as above; conditions: 10 μM free compound; mix of Jurkat and Ramos cell lysates
T9 construct: endogenous in cells; host or cells: mixed lysate of Jurkat and Ramos cells
Procedure: as §4, §5, §6

BIKE = target: T10, BIKE (Homo sapiens, UniProt Q9NSY1); experiment: as above; conditions: 10 μM free compound; mix of Jurkat and Ramos cell lysates
T10 construct: endogenous in cells; host or cells: mix of Jurkat and Ramos cell lysates
Procedure: as §4, §5, §6

PIK3Cd = PIK3Cd (Homo sapiens, UniProt O00329); experiment: Kinobeads competition binding, immobilized CZC31207, HeLa/placenta lysate mix; set-up: endogenous in cells; host or cells: mixed lysate of HeLa cells and placenta; conditions: 10 μM free compound; mixed HeLa and placenta cell lysates
Procedure: as §1
as §2, with “(40.000 rpm in Ti50.2, precooled).” left out, “The samples were immediately used for experiments or frozen in liquid nitrogen and stored frozen at −80° C.” left out

FRAP = FRAP (Homo sapiens, UniProt P42345); experiment: as above; set-up: endogenous in cells; host or cells: mixed lysate of HeLa cells and placenta; conditions: 10 μM free compound; mixed HeLa and placenta cell lysates
Procedure: as §1
as §2, with “(40.000 rpm in Ti50.2, precooled).” left out, “The samples were immediately used for experiments or frozen in liquid nitrogen and stored frozen at −80° C.” left out

DNAPK = DNAPK (Homo sapiens, UniProt P78527); experiment: as above; set-up: endogenous in cells; host or cells: mixed lysate of HeLa cells and placenta; conditions: 10 μM free compound; mixed HeLa and placenta cell lysates
Procedure: as §1
as §2, with “(40.000 rpm in Ti50.2, precooled).” left out, “The samples were immediately used for experiments or frozen in liquid nitrogen and stored frozen at −80° C.” left out

PIK3Cb = PIK3Cb (Homo sapiens, UniProt P42338); experiment: as above; set-up: endogenous in cells; host or cells: mix of HeLa cell lysate and placenta lysate; conditions: 10 μM free compound; mixed HeLa and placenta cell lysates
Procedure: as §1, §2, §3

PIP5K2C = PIP5K2C (Homo sapiens, UniProt Q8TBX8); experiment: as above; set-up: endogenous in cells; host or cells: mix of HeLa cell lysate and placenta lysate; conditions: 10 μM free compound; mixed HeLa and placenta cell lysates
Procedure: as §1, §2, §3

NEK2 = NEK2 (Homo sapiens, UniProt P51955); experiment: as above; set-up: endogenous in cells; host or cells: mix of HeLa cell lysate and placenta lysate; conditions: 10 μM free compound; mixed HeLa and placenta cell lysates
Procedure: as §1, §2, §3

PIK3Cg = PIK3Cg (Homo sapiens, UniProt P48736); experiment: as above; set-up: endogenous in cells; host or cells: mix of HeLa cell lysate and placenta lysate; conditions: 10 μM free compound; mixed HeLa and placenta cell lysates
Procedure: as §1, §2, §3

PIK4Ca = PIK4Ca (Homo sapiens, UniProt P42356); experiment: Kinobeads competition binding, immobilized CZC31207, Jurkat/Ramos lysate mix; set-up: capturing and identification of kinases from amix of Jurkat and Ramos cell lysates; endogenous in cells; host or cells: mix of Jurkat and Ramos cell lysates; conditions: 10 μM free compound; mix of Jurkat and Ramos cell lysates
Procedure: as §4
as §5, with “Cells were harvested by centrifugation, washed once with 1×PBS buffer (Invitrogen, #14190-094) and cell pellets were frozen in liquid nitrogen and subsequently stored at −80° C.” left out

CaMK2g [2] = target: T1, CaMK2g; experiment: as above; set-up: capturing and identification of kinases from amix of Jurkat and Ramos cell lysates; endogenous in cells; host or cells: mix of Jurkat and Ramos cell lysates; conditions: 10 μM free compound; mix of Jurkat and Ramos cell lysates
Procedure: as §4
as §5, with “Cells were harvested by centrifugation, washed once with 1×PBS buffer (Invitrogen, #14190-094) and cell pellets were frozen in liquid nitrogen and subsequently stored at −80° C.” left out

T1 sequence (Q13555 whole entry): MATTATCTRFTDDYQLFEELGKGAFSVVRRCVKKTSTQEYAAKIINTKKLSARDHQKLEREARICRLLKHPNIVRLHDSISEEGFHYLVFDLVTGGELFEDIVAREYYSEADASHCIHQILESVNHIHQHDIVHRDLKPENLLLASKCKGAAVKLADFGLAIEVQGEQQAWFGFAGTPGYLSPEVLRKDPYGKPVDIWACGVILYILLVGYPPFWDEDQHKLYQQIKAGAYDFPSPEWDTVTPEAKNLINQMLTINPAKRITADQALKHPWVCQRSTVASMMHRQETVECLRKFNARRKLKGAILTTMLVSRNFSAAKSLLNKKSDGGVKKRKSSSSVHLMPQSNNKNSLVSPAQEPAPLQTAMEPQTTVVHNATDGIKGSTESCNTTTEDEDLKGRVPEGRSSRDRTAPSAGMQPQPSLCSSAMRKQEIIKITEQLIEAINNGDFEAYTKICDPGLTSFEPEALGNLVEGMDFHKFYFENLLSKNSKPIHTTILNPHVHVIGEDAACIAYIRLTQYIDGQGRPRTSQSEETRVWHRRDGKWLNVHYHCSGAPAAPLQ
DNAPK, sequence (P78527 whole entry): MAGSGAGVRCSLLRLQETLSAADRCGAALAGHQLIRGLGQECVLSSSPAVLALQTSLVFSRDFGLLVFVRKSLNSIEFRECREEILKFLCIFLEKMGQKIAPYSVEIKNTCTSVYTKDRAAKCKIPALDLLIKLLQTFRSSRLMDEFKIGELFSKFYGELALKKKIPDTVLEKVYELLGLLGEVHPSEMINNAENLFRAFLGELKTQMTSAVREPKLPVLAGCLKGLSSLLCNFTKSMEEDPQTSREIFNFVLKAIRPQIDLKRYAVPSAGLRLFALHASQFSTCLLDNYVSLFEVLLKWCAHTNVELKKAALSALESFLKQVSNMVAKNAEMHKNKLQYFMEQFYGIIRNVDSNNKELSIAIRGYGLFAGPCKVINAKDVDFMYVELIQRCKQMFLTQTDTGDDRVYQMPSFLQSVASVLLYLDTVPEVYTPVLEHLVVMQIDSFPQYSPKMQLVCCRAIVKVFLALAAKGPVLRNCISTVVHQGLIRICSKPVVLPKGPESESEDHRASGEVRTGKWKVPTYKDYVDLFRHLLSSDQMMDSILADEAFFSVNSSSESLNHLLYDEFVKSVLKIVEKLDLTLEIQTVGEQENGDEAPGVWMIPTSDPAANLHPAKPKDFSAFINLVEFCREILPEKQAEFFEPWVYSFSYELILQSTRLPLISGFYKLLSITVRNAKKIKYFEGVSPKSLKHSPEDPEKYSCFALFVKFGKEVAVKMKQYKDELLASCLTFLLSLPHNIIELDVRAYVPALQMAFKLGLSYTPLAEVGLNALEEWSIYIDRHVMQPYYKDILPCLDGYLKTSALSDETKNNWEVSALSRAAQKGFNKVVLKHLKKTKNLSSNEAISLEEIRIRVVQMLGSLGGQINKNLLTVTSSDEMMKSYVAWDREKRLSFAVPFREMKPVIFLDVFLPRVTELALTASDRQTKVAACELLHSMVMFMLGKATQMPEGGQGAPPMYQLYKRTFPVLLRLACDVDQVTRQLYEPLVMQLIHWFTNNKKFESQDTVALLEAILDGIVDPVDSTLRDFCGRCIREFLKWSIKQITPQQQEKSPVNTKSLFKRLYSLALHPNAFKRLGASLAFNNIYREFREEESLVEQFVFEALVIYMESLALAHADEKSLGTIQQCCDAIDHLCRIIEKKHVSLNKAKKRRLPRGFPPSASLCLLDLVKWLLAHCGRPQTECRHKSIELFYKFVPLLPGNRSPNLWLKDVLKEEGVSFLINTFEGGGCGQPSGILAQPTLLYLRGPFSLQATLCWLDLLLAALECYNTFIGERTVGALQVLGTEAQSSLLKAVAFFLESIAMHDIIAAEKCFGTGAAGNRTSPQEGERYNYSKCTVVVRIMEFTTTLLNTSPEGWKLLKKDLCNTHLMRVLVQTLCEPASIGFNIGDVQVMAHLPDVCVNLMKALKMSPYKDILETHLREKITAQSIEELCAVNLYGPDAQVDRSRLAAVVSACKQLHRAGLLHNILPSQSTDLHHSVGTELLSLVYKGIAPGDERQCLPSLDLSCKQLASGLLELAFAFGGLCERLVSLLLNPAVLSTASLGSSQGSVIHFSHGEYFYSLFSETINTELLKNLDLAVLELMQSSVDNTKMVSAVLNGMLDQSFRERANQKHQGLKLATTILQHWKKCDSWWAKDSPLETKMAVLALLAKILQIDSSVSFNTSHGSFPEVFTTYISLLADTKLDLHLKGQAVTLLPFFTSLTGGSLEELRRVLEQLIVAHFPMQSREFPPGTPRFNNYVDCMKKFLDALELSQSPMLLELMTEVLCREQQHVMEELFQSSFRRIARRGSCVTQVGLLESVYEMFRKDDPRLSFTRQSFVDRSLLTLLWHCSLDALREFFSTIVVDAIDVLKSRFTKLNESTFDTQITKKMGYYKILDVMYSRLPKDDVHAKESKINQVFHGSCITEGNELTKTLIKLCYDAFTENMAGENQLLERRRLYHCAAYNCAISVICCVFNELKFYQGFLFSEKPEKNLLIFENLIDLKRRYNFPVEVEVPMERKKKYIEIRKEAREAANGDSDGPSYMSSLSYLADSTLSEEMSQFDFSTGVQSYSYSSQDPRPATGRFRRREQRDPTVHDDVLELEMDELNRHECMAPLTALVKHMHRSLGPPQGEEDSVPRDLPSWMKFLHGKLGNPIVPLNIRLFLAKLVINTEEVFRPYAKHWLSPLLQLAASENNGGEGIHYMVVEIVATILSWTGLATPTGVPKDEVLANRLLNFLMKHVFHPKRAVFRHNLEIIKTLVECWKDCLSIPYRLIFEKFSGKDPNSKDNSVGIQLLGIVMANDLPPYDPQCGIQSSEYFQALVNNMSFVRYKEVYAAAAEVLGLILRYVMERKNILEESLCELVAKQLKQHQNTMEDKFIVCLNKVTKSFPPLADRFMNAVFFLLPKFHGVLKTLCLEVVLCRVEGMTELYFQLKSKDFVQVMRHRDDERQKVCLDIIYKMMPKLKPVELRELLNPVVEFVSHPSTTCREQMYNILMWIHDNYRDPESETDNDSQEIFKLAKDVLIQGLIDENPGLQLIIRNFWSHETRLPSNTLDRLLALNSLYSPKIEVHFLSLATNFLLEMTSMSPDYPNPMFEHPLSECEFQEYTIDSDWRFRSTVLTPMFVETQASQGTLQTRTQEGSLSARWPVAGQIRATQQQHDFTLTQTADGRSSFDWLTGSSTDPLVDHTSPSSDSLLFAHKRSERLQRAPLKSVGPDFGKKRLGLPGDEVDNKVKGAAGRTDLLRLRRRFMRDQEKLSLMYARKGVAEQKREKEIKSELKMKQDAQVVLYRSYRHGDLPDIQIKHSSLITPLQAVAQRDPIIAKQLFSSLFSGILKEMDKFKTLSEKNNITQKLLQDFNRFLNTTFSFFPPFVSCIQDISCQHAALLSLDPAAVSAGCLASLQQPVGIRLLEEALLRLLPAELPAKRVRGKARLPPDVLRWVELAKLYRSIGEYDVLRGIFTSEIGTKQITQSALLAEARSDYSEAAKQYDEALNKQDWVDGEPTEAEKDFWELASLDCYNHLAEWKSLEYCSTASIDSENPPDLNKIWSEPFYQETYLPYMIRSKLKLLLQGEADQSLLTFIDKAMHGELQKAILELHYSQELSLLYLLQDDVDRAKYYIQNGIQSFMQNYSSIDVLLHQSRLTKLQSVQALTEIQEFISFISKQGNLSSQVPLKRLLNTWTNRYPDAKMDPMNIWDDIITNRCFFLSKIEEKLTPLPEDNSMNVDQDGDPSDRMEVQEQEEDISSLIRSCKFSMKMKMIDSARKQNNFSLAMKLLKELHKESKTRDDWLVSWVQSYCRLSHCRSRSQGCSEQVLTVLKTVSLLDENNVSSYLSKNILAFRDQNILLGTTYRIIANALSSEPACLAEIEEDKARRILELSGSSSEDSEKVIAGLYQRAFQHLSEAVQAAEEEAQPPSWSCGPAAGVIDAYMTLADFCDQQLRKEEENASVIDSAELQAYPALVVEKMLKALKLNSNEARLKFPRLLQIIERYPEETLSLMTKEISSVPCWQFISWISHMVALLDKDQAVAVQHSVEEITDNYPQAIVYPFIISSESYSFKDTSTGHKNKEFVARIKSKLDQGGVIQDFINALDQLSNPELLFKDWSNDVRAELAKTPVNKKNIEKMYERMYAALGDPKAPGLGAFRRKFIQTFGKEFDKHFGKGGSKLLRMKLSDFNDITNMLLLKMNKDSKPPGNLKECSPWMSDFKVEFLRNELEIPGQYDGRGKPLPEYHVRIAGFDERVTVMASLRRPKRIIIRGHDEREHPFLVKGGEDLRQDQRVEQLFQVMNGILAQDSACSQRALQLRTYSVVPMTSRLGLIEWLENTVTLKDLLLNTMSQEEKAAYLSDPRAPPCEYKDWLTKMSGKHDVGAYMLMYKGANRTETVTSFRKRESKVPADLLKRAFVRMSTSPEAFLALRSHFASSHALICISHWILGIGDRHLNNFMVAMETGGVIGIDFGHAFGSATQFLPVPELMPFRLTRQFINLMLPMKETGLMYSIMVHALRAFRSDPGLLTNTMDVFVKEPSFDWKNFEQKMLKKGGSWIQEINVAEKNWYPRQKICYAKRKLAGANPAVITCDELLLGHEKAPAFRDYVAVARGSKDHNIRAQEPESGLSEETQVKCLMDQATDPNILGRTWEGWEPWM
T6 sequence (Q8TCG2 whole entry): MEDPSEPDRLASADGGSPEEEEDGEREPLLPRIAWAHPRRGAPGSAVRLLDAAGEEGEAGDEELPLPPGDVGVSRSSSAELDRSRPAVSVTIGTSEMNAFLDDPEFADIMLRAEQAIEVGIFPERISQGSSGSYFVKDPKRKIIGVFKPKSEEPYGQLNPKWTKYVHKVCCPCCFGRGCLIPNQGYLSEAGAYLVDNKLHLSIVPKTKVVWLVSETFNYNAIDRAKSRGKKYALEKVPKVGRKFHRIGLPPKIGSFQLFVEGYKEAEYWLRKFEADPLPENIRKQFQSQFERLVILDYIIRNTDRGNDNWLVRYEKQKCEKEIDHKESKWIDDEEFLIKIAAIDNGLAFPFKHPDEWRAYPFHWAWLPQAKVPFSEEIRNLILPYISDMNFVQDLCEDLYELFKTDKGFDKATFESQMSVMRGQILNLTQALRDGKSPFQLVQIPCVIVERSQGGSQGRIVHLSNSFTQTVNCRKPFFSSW

Competition % CaMK2g (CaMK2g [1]): 15.2% | Competition % CDC2 (CDC2): 34.1% | Competition % PIK3C3 (PIK3C3): 52.4% | Competition % CaMK2d (CaMK2d): −1.3% | Competition % PIP5K2A (PIP5K2A): 68.5% | Competition % PIK4C2B (PIK4C2B): 20.3% | Competition % MST1 (MST1): 24.5% | Competition % PKD2 (PKD2): 37.9% | Competition % CDK6 (CDK6): −1.6% | Competition % BIKE (BIKE): 26.1% | Competition % PIK3Cd (PIK3Cd): 83.6% | Competition % FRAP (FRAP): 25.9% | Competition % DNAPK (DNAPK): 35.3% | Competition % PIK3Cb (PIK3Cb): 85.6% | Competition % PIP5K2C (PIP5K2C): 78.3% | Competition % NEK2 (NEK2): 40.4% | Competition % PIK3Cg (PIK3Cg): 80% | Competition % PIK4Ca (PIK4Ca): 28.5% | Competition % CaMK2g (CaMK2g [2]): −3.1%
SMILES: CC(C)NS(=O)(=O)c1cncc(-c2ccc3nc(NC(=O)NCCN)nn3c2)c1 [CZC31207, 5-(2-(3-(2-aminoethyl)ureido)-[1,2,4]triazolo[1,5-a]pyridin-6-yl)-N-isopropylpyridine-3-sulfonamide]
